Assay results: paper PMC11418745 (Molecular cell, 2023)
Like-named read-outs stand apart in the source and are kept apart here.

Legend:
[1] = biological target: T1, SIR2-HerA complex (SIR2 NADase site) (Escherichia coli, UniProt A0ABF7PQ24); test: cryo-EM structure, […] Å; assay type: binding; conditions: SIR2 active site; 12:6 complex (also 12:5 8SUB and 12:4 8SUW)
[2] = biological target: SIR2-HerA complex (HerA nucleotide site) (Escherichia coli, UniProt A0ABF7PQ25); test: ATPase kit, colorimetric phosphate; assay type: biochemical; conditions: 20 mM Tris pH 8.0, 75 mM KCl, 2 mM MgCl2, 37 °C
[3] = biological target: EcSIR2 dodecamer (Escherichia coli, UniProt A0ABF7PQ24); test: cryo-EM structure, […] Å; assay type: binding; conditions: active site of SIR2 dodecamer without HerA; not hydrolysed
[4] = biological target: T1, SIR2-HerA complex (SIR2 NADase site); test: ε-NAD+ fluorescence NADase assay; assay type: biochemical; conditions: 0.5 μM protein, 20 mM Tris pH 8.0, 75 mM KCl, 2 mM MgCl2, 33 °C
[5] = biological target: the molecule itself; test: cryo-EM structure
[6] = biological target: the molecule itself; test: cryo-EM structure; remark: listed apart in the source

## Nc1ncnc2c1ncn2[C@@H]1O[C@H](COP(=O)(O)OP(=O)(O)OC[C@H]2OC(O)[C@H](O)[C@@H]2O)[C@@H](O)[C@H]1O (stereo partly shown) [ADPR]
[1]
  cryo-EM structure, 2.83 Å: an ADPR molecule, the product of NAD^+ hydrolysis, occupied the active site of EcSIR2

## Nc1ncnc2c1ncn2[C@@H]1O[C@H](COP(=O)(O)OP(=O)(O)OP(=O)(O)O)[C@@H](O)[C@H]1O [ATP]
[2]
  ATPase kit, colorimetric phosphate: the SIR2-HerA complex, not HerA alone, can hydrolyze ATP

## NC(=O)c1ccc[n+]([C@@H]2O[C@H](COP(=O)(O)OP(=O)(O)OC[C@H]3O[C@@H](n4cnc5c(N)ncnc54)[C@H](O)[C@@H]3O)[C@@H](O)[C@H]2O)c1 [NAD^+]
[3]
  cryo-EM structure, 3.6 Å: identified an NAD^+ molecule in the active site of EcSIR2

## NC(=O)c1ccc[n+]([C@@H]2O[C@H](COP(=O)(O)OP(=O)(O)OC[C@H]3O[C@@H](n4cnc5c4ncn4ccnc54)[C@H](O)[C@@H]3O)[C@@H](O)[C@H]2O)c1 [ε-NAD^+]
[4]
  ε-NAD+ fluorescence NADase assay: To test the NADase activities of the SIR2-HerA complex and SIR2 alone, ε-NAD^+ assays

B1: E. coli SIR2 (EcSIR2) co-expressed with HerA as the SIR2-HerA complex (enzyme)
chain: MSIYQGGNKLNEDDFRSHVYSLCQLDNVGVLLGAGASVGCGGKTMKDVWKSFKQNYPELLGALIDKYLLVSQIDSDNNLVNVELLIDEATKFLSVAKTRRCEDEEEEFRKILSSLYKEVTKAALLTGEQFREKNQGKKDAFKYHKELISKLISNRQPGQSAPAIFTTNYDLALEWAAEDLGIQLFNGFSGLHTRQFYPQNFDLAFRNVNAKGEARFGHYHAYLYKLHGSLTWYQNDSLTVNEVSASQAYDEYINDIINKDDFYRGQHLIYPGANKYSHTIGFVYGEMFRRFGEFISKPQTALFINGFGFGDYHINRIILGALLNPSFHVVIYYPELKEAITKVSKGGGSEAEKAIVTLKNMAFNQVTVVGGGSKAYFNSFVEHLPYPVLFPRDNIVDELVEAIANLSKGEGNVPF
[5]
  stoichiometry N: 12

B2: E. coli SIR2 (EcSIR2), expressed alone (enzyme)
chain: MSIYQGGNKLNEDDFRSHVYSLCQLDNVGVLLGAGASVGCGGKTMKDVWKSFKQNYPELLGALIDKYLLVSQIDSDNNLVNVELLIDEATKFLSVAKTRRCEDEEEEFRKILSSLYKEVTKAALLTGEQFREKNQGKKDAFKYHKELISKLISNRQPGQSAPAIFTTNYDLALEWAAEDLGIQLFNGFSGLHTRQFYPQNFDLAFRNVNAKGEARFGHYHAYLYKLHGSLTWYQNDSLTVNEVSASQAYDEYINDIINKDDFYRGQHLIYPGANKYSHTIGFVYGEMFRRFGEFISKPQTALFINGFGFGDYHINRIILGALLNPSFHVVIYYPELKEAITKVSKGGGSEAEKAIVTLKNMAFNQVTVVGGGSKAYFNSFVEHLPYPVLFPRDNIVDELVEAIANLSKGEGNVPF
[6]
  stoichiometry N: 12

B3: E. coli HerA (EcHerA) co-expressed with SIR2 as the SIR2-HerA complex (enzyme)
chain: MSLFKLTEISAIGYVVGLEGERIRINLHEGLQGRLASHRKGVSSVTQPGDLIGFDAGNILVVARVTDMAFVEADKAHKANVGTSDLADIPLRQIIAYAIGFVKRELNGYVFISEDWRLPALGSSAVPLTSDFLNIIYSIDKEELPKAVELGVDSRTKTVKIFASVDKLLSRHLAVLGSTGYGKSNFNALLTRKVSEKYPNSRIVIFDINGEYAQAFTGIPNVKHTILGESPNVDSLEKKQQKGELYSEEYYCYKKIPYQALGFAGLIKLLRPSDKTQLPALRNALSAINRTHFKSRNIYLEKDDGETFLLYDDCRDTNQSKLAEWLDLLRRRRLKRTNVWPPFKSLATLVAEFGCVAADRSNGSKRDAFGFSNVLPLVKIIQQLAEDIRFKSIVNLNGGGELADGGTHWDKAMSDEVDYFFGKEKGQENDWNVHIVNMKNLAQDHAPMLLSALLEMFAEILFRRGQERSYPTVLLLEEAHHYLRDPYAEIDSQIKAYERLAKEGRKFKCSLIVSTQRPSELSPTVLAMCSNWFSLRLTNERDLQALRYAMESGNEQILKQISGLPRGDAVAFGSAFNLPVRISINQARPGPKSSDAVFSEEWANCTELRC
[5]
  stoichiometry N: 6
